According to patent publication US20240376514A1, “BACTERIAL BIOSENSORS FOR MONITORING AND DETECTION OF NAPHTHENIC ACIDS IN THE ENVIRONMENT” (THE GOVERNORS OF ATHABASCA UNIVERSITY, priority 2021, published 2024):

Experiments:
atuA = atuA promoter-luxCDABE biosensor gene expression; format: cell-based; conditions: Pseudomonas OST1909
Experimental: Routine microbiology and gene expression assays using 96 well plates were performed to grow the biosensor strains in the presence of environmental water samples, and the light output from the biosensor was used as a proxy to indicate the concentration of naphthenic acids in the water.
In the fourth step, all plasmid-encoded genetic circuits were introduced back into Pseudomonas OST1909 for validation.
“SIGMA” and “Acros” indicate two sources of primarily acyclic NA mixtures. […] A post hoc Tukey HSD test was conducted with each compound and mixture to test significant relationships between each group (α=0.05, n=3).

atu operon = conditions: stated as known; cited from earlier work

SMILES | induction of the atu operon / atu genes (atuA) | induction of atu genes in Pseudomonas aeruginosa by acyclic terpenes (atu operon)
CC(C)=CCCC(C)CC(=O)O (centres unmarked) [citronellic acid] | induce expression | 
CC(C)=CCCC(C)CCO (centres unmarked) [citronellol] | do not induce | induced
CC(C)=CCC/C(C)=C/CO [geraniol] | do not induce | induced
